Experimental data: US10111881B2 (priority 2016, dated 2018)
Entries after “also recorded” stand apart in the source; their conditions may differ. Read-outs that look alike come from different tables or passages of the source.

What was measured:
HeLa cells [1] = test system: HeLa cells
HeLa cells [2] = assay type: cell-based, human; conditions: for Dextran Uptake: 50 μM
[3] = test system: Baby hamster kidney fibroblasts (BHK) cells; test: Acridine orange assay for acidification blockers; assay type: cell-based
EBOV [4] = assay type: cell-based, Zaire Ebolavirus (Mayinga strain)
NPC1 C-loop = target: T1, NPC1 C-loop (Homo sapiens, UniProt O15118); test: NPC1 C-loop binding
T1 construct: C-loop
T1 sequence (O15118 372-620 limits assumed): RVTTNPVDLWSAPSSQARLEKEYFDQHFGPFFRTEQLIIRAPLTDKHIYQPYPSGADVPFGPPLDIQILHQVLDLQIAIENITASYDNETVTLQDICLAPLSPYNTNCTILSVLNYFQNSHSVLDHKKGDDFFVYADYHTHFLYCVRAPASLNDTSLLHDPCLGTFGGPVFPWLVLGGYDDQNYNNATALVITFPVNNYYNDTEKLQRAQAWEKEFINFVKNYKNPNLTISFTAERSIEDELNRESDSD

MARV = test: microbe, parasite or virus in culture; assay type: cell-based, Marburgvirus (Musoke strain)
HeLa cells [5] = assay type: cell-based, human; conditions: for Transferrin uptake: 50 μM
Cathepsin = Cathepsin cleavage of GP
IL-1-Beta = conditions: PubChem / MLSMR data; cited from earlier work
EBOV [6] = test: organism not typed; assay type: cell-based, Zaire Ebolavirus (Mayinga strain)
EBOV [7] = test: microbe, parasite or virus in culture; assay type: cell-based, Zaire Ebolavirus (Mayinga strain)
EEA1-positive vesicles = assay type: cell-based, human
LAMP1-positive vesicles = assay type: cell-based, human
[8] = read-out: Activity in macrophages IC50

CCN(c1nc(N)c(C(=O)NC(=N)N)nc1Cl)C(C)C [EIPA, reference compound]
toxic concentration (not toxic up to / toxic at) (HeLa cells [1]): 37 µM
reduction of uptake of fluorescently labeled dextran (HeLa cells [2]): 95%
effect on endosomal acidification [3]: decreases endosomal acidification

C=C(c1ccc(O)cc1)c1ccc(O)cc1 [MLS000078751]
Surface interaction (EBOV [4]): −
Uninfected cell number (EBOV [4]): +
decrease in total viral particles bound to cell surface (EBOV [4]): 53%
virus particle uptake (EBOV [4]): reduced particle uptake
NPC1 C-loop binding (NPC1 C-loop): 0
Dextran Uptake (HeLa cells [2]): 0
Curve class (MARV) (MARV): 1.5
MARV (Curve class) (MARV): 1.5
IC50 (MARV; read-out: IC-50 (MARV)): 6.13 µM
IC50 (MARV; read-out: MARV HeLa IC50): 6.1 µM
Transferrin uptake (HeLa cells [5]): 0
Cathepsin clevage (Cathepsin): 0
secretion of IL-1-Beta (IL-1-Beta): inhibit secretion of IL-1-Beta
Acidification Block [3]: −
Curve Class (EBOV) (EBOV [6]): 1.3
EBOV (curve class) (EBOV [6]): 1.3
IC50 (EBOV [6]; read-out: EBOV HeLa IC50): 25.6 µM
IC50 (EBOV [6]; read-out: IC-50 (EBOV)): 25.6 µM
IC50 (EBOV [7]; [8]): ~25 µM

CC(C)(CS(=O)(=O)[O-])NC(=O)CC[N+](C)(C)CCO [MLS000554255]
Surface interaction (EBOV [4]): 0
Uninfected cell number (EBOV [4]): +
number of cells without virus bound (EBOV [4]): increased the number of cells without virus bound
Effect on EEA1 (EEA1-positive vesicles): +
increase of colocalization of VLPs with EEA1-positive vesicles (EEA1-positive vesicles): 83%
NPC1 C-loop binding (NPC1 C-loop): 0
Dextran Uptake (HeLa cells [2]): 0
Effect on LAMP1 (LAMP1-positive vesicles): −
reduction of number of VLPs present in LAMP1-positive vesicles (LAMP1-positive vesicles): 33%
Curve class (MARV) (MARV): 1.3
MARV (Curve class) (MARV): 1.3
IC50 (MARV; read-out: IC-50 (MARV)): 6.39 µM
IC50 (MARV; read-out: MARV HeLa IC50): 6.4 µM
effect on transferrin uptake (HeLa cells [5]): do not inhibit transferrin uptake
Transferrin uptake (HeLa cells [5]): 0
Cathepsin clevage (Cathepsin): 0
Acidification Block [3]: −
Curve Class (EBOV) (EBOV [6]): 1.5
EBOV (curve class) (EBOV [6]): 1.5
IC50 (EBOV [6]; read-out: EBOV HeLa IC50): 6.8 µM
IC50 (EBOV [6]; read-out: IC-50 (EBOV)): 6.84 µM
IC50 (EBOV [7]; [8]): 6 µM

Cc1cc(N2CCN(C)CC2)nc2ccc(NC(=S)NCCCN3CCc4ccccc4C3)cc12 [MLS000730532]
Surface interaction (EBOV [4]): 0
Uninfected cell number (EBOV [4]): 0
reduction of number of viral particles inside the cell body (EBOV [4]): 89%
NPC1 C-loop binding (NPC1 C-loop): 0
reduction of uptake of fluorescently labeled dextran (HeLa cells [2]): ~74%
Dextran Uptake (HeLa cells [2]): −
Curve class (MARV) (MARV): 1.3
MARV (Curve class) (MARV): 1.3
IC50 (MARV; read-out: IC-50 (MARV)): 1.93 µM
IC50 (MARV; read-out: MARV HeLa IC50): 1.9 µM
effect on transferrin uptake (HeLa cells [5]): impaired uptake of this marker, comparable to chlorpromazine
Transferrin uptake (HeLa cells [5]): −
Cathepsin clevage (Cathepsin): 0
secretion of IL-1-Beta (IL-1-Beta): inhibit secretion of IL-1-Beta
Acidification Block [3]: +
effect on endosomal acidification [3]: affected endosomal acidification
IC50 (EBOV [6]; read-out: EBOV HeLa IC50): 1.6 µM
IC50 (EBOV [6]; read-out: IC-50 (EBOV)): 1.56 µM
IC50 (EBOV [7]; [8]): 9.5 µM

Cc1cc(-c2nn(-c3ccccc3F)cc2CN2CCN(c3ccncc3)CC2)c(C)s1 [MLS000733230, 1-[[3-(2,5-dimethylthiophen-3-yl)-1-(2-fluorophenyl)pyrazol-4-yl]methyl]-4-pyridin-4-ylpiperazine]
Surface interaction (EBOV [4]): 0
Uninfected cell number (EBOV [4]): 0
reduction of number of viral particles inside the cell body (EBOV [4]): 91%
toxic concentration (not toxic up to / toxic at) (HeLa cells [1]; human): > 100 µM
NPC1 C-loop binding (NPC1 C-loop): 0
reduction of uptake of fluorescently labeled dextran (HeLa cells [2]): approximately 91%
Dextran Uptake (HeLa cells [2]): −
Curve class (MARV) (MARV): 1.3
MARV (Curve class) (MARV): 1.3
IC50 (MARV; Orthomarburgvirus, HeLa, read-out: IC-50 (MARV)): 11.7 µM
IC50 (MARV; Orthomarburgvirus, HeLa, read-out: MARV HeLa IC50 (μM)): 11.7 µM
effect on transferrin uptake (HeLa cells [5]): no effect on transferrin uptake
Transferrin uptake (HeLa cells [5]): 0
Cathepsin clevage (Cathepsin): 0
secretion of IL-1-Beta (IL-1-Beta): inhibit secretion of IL-1-Beta
Acidification Block [3]: +
effect on endosomal acidification [3]: affected endosomal acidification
Curve Class (EBOV) (EBOV [6]): 1.3
EBOV (curve class) (EBOV [6]): 1.3
potency for Ebolavirus inhibition, times better than EIPA (EBOV [6]): 7 times
EC50 (EBOV [6]; HeLa, read-out: EC50 for Ebolavirus inhibition): 6.7 µM
IC50 (EBOV [6]; Zaire ebolavirus, HeLa, read-out: EBOV HeLa IC50 (μM)): 6.7 µM
IC50 (EBOV [6]; Zaire ebolavirus, HeLa, read-out: IC-50 (EBOV)): 6.7 µM
IC50 (EBOV [7]; Zaire ebolavirus, Macrophage, read-out: Activity in macrophages IC50 (μM)): 4.4 µM

Cc1nn2c(NCCCN(C)C)c3c(nc2c1-c1ccccc1)CCCC3 [MLS000762907]
Surface interaction (EBOV [4]): 0
Uninfected cell number (EBOV [4]): 0
virus particle binding to cell surface (EBOV [4]): did not affect
Effect on EEA1 (EEA1-positive vesicles): 0
VLP colocalization with EEA1 (EEA1-positive vesicles): colocalized with EEA1 positive vesicles normally; also recorded: no effect
NPC1 C-loop binding (NPC1 C-loop): 0
effect on macropinocytic uptake of dextran (HeLa cells [2]): not of dextran; also recorded: did not affect
Dextran Uptake (HeLa cells [2]): 0
Effect on LAMP1 (LAMP1-positive vesicles): 0
VLP colocalization with LAMP1 (LAMP1-positive vesicles): no effect
Curve class (MARV) (MARV): 1.3
MARV (Curve class) (MARV): 1.3
IC50 (MARV; read-out: IC-50 (MARV)): 12.5 µM
IC50 (MARV; read-out: MARV HeLa IC50): 12.5 µM
effect on transferrin uptake (HeLa cells [5]): inhibited transferrin uptake; also recorded: reduced uptake of transferrin; also recorded: blocked uptake of transferrin
Transferrin uptake (HeLa cells [5]): −
Cathepsin clevage (Cathepsin): 0
Acidification Block [3]: +
Curve Class (EBOV) (EBOV [6]): 1.3
EBOV (curve class) (EBOV [6]): 1.3
IC50 (EBOV [6]; read-out: EBOV HeLa IC50): 3.2 µM
IC50 (EBOV [6]; read-out: IC-50 (EBOV)): 3.19 µM
IC50 (EBOV [7]; [8]): 23.4 µM

Fc1ccc2c(c1)Sc1ccc(Cl)cc1CC2N1CCN(CCC2OCCO2)CC1 (stereo not drawn) [MLS001179272]
Curve class (MARV) (MARV): 1.3
IC50 (MARV; read-out: IC-50 (MARV)): 25.4 µM
Curve Class (EBOV) (EBOV [6]): 1.5
IC50 (EBOV [6]; read-out: IC-50 (EBOV)): 0.691 µM

COc1ccc2c(c1)CC(N1CCN(C)CC1)c1cc(OC)ccc1S2.O=C(O)/C=C\C(=O)O (stereo not drawn) [MLS001179278]
Curve class (MARV) (MARV): 1.2
IC50 (MARV; read-out: IC-50 (MARV)): 12.5 µM
Curve Class (EBOV) (EBOV [6]): 1.6
IC50 (EBOV [6]; read-out: IC-50 (EBOV)): 6.49 µM

CCN(CCNCC(O)COc1ccccc1C(C)C)c1cccc(C)c1.O=C(O)C(=O)O (stereo not drawn) [MLS001179997]
IC50 (MARV; read-out: IC-50 (MARV)): 25.5 µM
Curve Class (EBOV) (EBOV [6]): 1.4

Cc1ccc(C(=O)N/C(=C/c2ccc(-c3ccc([N+](=O)[O-])cc3)o2)C(=O)NCCCN(C)C)cc1 [MLS001180408]
IC50 (MARV; read-out: IC-50 (MARV)): 12.5 µM
Curve Class (EBOV) (EBOV [6]): 4

OC(CN1CCCCC1)Cn1c2ccc(Cl)cc2c2cc(Cl)ccc21 (stereo not drawn) [MLS001181479]
Curve class (MARV) (MARV): 1.2
IC50 (MARV; read-out: IC-50 (MARV)): 25.6 µM
Curve Class (EBOV) (EBOV [6]): 4

Cc1cc(Cl)cc(C)c1OCCn1ccnc1 [MLS001196083]
IC50 (MARV; read-out: IC-50 (MARV)): 2.06 µM
IC50 (EBOV [6]; read-out: IC-50 (EBOV)): 6.19 µM

CN(C)CCCNC(=S)N1CCN(c2nc(-c3ccccc3)cs2)CC1 [MLS001207131]
Curve class (MARV) (MARV): 1.2
IC50 (MARV; read-out: IC-50 (MARV)): 25.3 µM
Curve Class (EBOV) (EBOV [6]): 1.3
IC50 (EBOV [6]; read-out: IC-50 (EBOV)): 25.2 µM

COc1ccc(Nc2cc(C)nc3ccc(OC)cc23)cc1 [MLS001209453]
Curve class (MARV) (MARV): 1.2
IC50 (MARV; read-out: IC-50 (MARV)): 12.5 µM
Curve Class (EBOV) (EBOV [6]): 1.3
IC50 (EBOV [6]; read-out: IC-50 (EBOV)): 3.4 µM

Cc1ccccc1NC(=O)CSc1ccc(-c2ccccn2)nn1 [MLS001237534]
IC50 (MARV; read-out: IC-50 (MARV)): 24.8 µM
Curve Class (EBOV) (EBOV [6]): 4

CN(C)CCCN(C(=O)c1ccc2ccccc2c1)c1nc2cc3c(cc2s1)OCO3.Cl [MLS001239325]
Curve class (MARV) (MARV): 1.3
IC50 (MARV; read-out: IC-50 (MARV)): 13.3 µM
Curve Class (EBOV) (EBOV [6]): 1.7
IC50 (EBOV [6]; read-out: IC-50 (EBOV)): 1.55 µM

CCOC(=O)N1CCN(S(=O)(=O)c2ccc(C(=O)N(CCCN(C)C)c3nc4c(C)c(C)ccc4s3)cc2)CC1.Cl [MLS001239358]
IC50 (MARV; read-out: IC-50 (MARV)): 13 µM
Curve Class (EBOV) (EBOV [6]): 1.6
IC50 (EBOV [6]; read-out: IC-50 (EBOV)): 0.609 µM

C=C1C(=O)c2sccc2C(c2ccc(OC)c(OC)c2)C1COC(C)=O (stereo not drawn) [MLS002702500]
Curve class (MARV) (MARV): 1.3
IC50 (MARV; read-out: IC-50 (MARV)): 2.06 µM
IC50 (EBOV [6]; read-out: IC-50 (EBOV)): 5.93 µM
